Test results from paper PMC11939078, “TAK-994 mechanistic investigation into drug-induced liver injury” (Toxicological Sciences, 2025).
pIC50: −log10 of the molar value.

Key:
HepG2 cells = assay: HepG2 72-h cytotoxicity assay (glucose medium, ATP content); type: cell-based, human
Method: Cytotoxicity of TAK-994 was evaluated in glucose or galactose medium after 24 h and in glucose medium after 72 h in HepG2 cells, with cryopreserved HepG2 cells thawed and seeded onto assay plates at 5,000 cells/well in glucose or galactose medium for the 24-h assay and at 2,500 cells/well in glucose medium for the 72-h assay. After ∼24 h of incubation at 37 °C in 5% CO2, the cells were incubated with test solutions under the same conditions for 24 h for the plate with 5,000 cells/well or 72 h for the plate with 2,500 cells/well. Cytotoxicity of TAK-994 was also assessed using HepG2 cells with CYP3A4 overexpression using a lentivirus vector. HepG2/CYP3A4 cells were incubated in media containing TAK-994 (0.09 to 200 μM), positive control aflatoxin B1 (0.04 to 80 μM), or 1.0% DMSO (negative control). In both cytotoxicity assays, adenosine triphosphate (ATP) content was assessed after incubation using a commercial luminescence assay (CellTiter-Glo; Promega Co., Ltd, WI, United States).
HepG2 cells (American Type Culture Collection [ATCC, VA, USA]) were acclimated to Dulbecco's Modified Eagle Medium (DMEM; Thermo Fisher Scientific, MA, USA) with either high glucose or high galactose and containing 10% FBS for 1 week then cryopreserved. The cryopreserved HepG2 cells were thawed, cultured for 24 hours, then seeded at 5000 cells/well in glucose or galactose medium for the 24-hour assay and at 2500 cells/well in glucose medium for the 72-hour assay onto the assay plates. After approximately 24 hours of incubation at 37°C in 5% CO2, the cells were incubated with test solutions under the same conditions for 24 hours for the plate with 5000 cells/well or 72 hours for the plate with 2500 cells/well. After the incubation, CellTiter-Glo® (Promega Co., Ltd., WI, USA) was added to the assay plates, cells were incubated for 30 minutes, and luminescence was recorded to measure the ATP content using an EnVision plate reader (PerkinElmer Co., Ltd., MA, USA). The test compound TAK-994 was evaluated at concentrations of 0.046, 0.14, 0.41, 1.2, 3.7, 11, 33, and 100 μM. Positive controls rotenone and staurosporine were purchased from FUJIFILM Wako Pure Chemical Corporation (Osaka, Japan) and evaluated at concentrations of 0.046, 0.14, 0.41, 1.2, 3.7, 11, 33, and 100 μM in DMSO (rotenone) or 0.0046, 0.014, 0.041, 0.12, 0.37, 1.1 , 3.3, and 10 μM in DMSO (staurosporine). Two experiments were conducted at each concentration.
Inhibition rate (%) = (1-mean of sample values / mean of Max values) × 100, where Max values = vehicle control.

[1] = system: PXB cells (human hepatocytes); assay: CLF efflux (bile transport) assay in PXB cells; type: cell-based; conditions: n = 3
Method: Cholyl-lysyl-fluorescein (CLF) efflux for TAK-994 was assessed using human hepatocytes implanted into PXB-mice. PXB cells were exposed to TAK-994 (0.3, 1, 3, 10, 30, and 100 μM) or vehicle for 2 h and then incubated for an additional 30 min with TAK-994 or vehicle containing 5 μM CLF. CLF efflux and its inhibition by TAK-994 were assessed by fluorescence analysis.
PXB hepatocytes were generated by implanting human hepatocytes into PXB-mice®. These hepatocytes were isolated by collagenase perfusion at PhoenixBio Co Ltd. Freshly isolated hepatocytes were maintained in T-75 flasks and detached using 0.25% trypsin/ethylenediaminetetraacetic acid (EDTA) incubation for 20 minutes (total) using the following procedure. A flash wash was performed with cold trypsin/EDTA, followed by a 5-minute incubation with cold trypsin/EDTA at 37°C, and finally a 15-minute incubation at 37°C with trypsin/EDTA. […]
On Day 8, PXB cells were exposed to TAK-994 (0.3, 1, 3, 10, 30, and 100 μM) or 0.1% DMSO for 2 hours and then incubated for an additional 30 minutes with TAK-994 or […] containing 5 μM CLF. […] The CLF efflux and its inhibition by TAK-994 was quantified using Developer toolbox software. […] The fluorescent intensities of bile canalicular regions were measured to determine the IC50 for TAK-994 CLF efflux inhibition. […]

Rat = Rat 26-week oral gavage toxicity study; type: in vivo; conditions: for Histopathological Liver Findings / ALT / AST / GLDH: rat 26-week; for ALT / AST / GLDH: mean (SD)
Text: TAK-994 performed well in tiered safety screening assays, with wide margins between in vitro IC50 and the predicted efficacious exposures (Table 1). […] Based on the safety profiles observed in these animal studies, TAK-994 progressed into phase I clinical trials.
^aAll dose levels had 15 animals per sex. No statistical difference was observed between the TAK-994 and control groups.

CC(C)(O)C(=O)N1CC[C@H](NS(C)(=O)=O)[C@@H]1Cc1cccc(-c2cc(F)cc(F)c2)c1F.CC(C)(O)C(=O)N1CC[C@H](NS(C)(=O)=O)[C@@H]1Cc1cccc(-c2cc(F)cc(F)c2)c1F.O.O.O [TAK-994]
pIC50 (HepG2 cells): < 4.00 | cytotoxicity margin (Cmax/IC50) (HepG2 cells): > 100 × | top test concentration (100 µM) relative to Cmax in patients (HepG2 cells; human): ~100 fold | pIC50 [1]: 4.52 | Histopathological Liver Findings (Rat; female, 50 mg/kg): No adverse findings | ALT (Rat; female, 50 mg/kg): 35 (12) IU/L | AST (Rat; female, 50 mg/kg): 64 (38) IU/L | GLDH (Rat; female, 50 mg/kg): 41 (78) IU/L | Histopathological Liver Findings (Rat; female, 150 mg/kg): No adverse findings | ALT (Rat; female, 150 mg/kg): 37 (8) IU/L | AST (Rat; female, 150 mg/kg): 53 (13) IU/L | GLDH (Rat; female, 150 mg/kg): 12 (14) IU/L | Histopathological Liver Findings (Rat; female, 1000 mg/kg): No adverse findings | ALT (Rat; female, 1000 mg/kg): 44 (14) IU/L | AST (Rat; female, 1000 mg/kg): 51 (6) IU/L | GLDH (Rat; female, 1000 mg/kg): 6 (4) IU/L | Histopathological Liver Findings (Rat; male, 50 mg/kg): No adverse findings | ALT (Rat; male, 50 mg/kg): 29 (6) IU/L | AST (Rat; male, 50 mg/kg): 53 (8) IU/L | GLDH (Rat; male, 50 mg/kg): 12 (8) IU/L | Histopathological Liver Findings (Rat; male, 150 mg/kg): No adverse findings | ALT (Rat; male, 150 mg/kg): 38 (31) IU/L | AST (Rat; male, 150 mg/kg): 53 (11) IU/L | GLDH (Rat; male, 150 mg/kg): 12 (7) IU/L | Histopathological Liver Findings (Rat; male, 1000 mg/kg): No adverse findings | ALT (Rat; male, 1000 mg/kg): 31 (7) IU/L | AST (Rat; male, 1000 mg/kg): 50 (11) IU/L | GLDH (Rat; male, 1000 mg/kg): 7 (4) IU/L | adverse liver findings, chronic dose toxicity study (Rat; rats, 6-mo, up to the high dose tested of 1,000 mg/kg): no adverse liver findings
